Assay results published in the NIST ThermoML archive (doi:10.1016/j.tca.2011.10.010).

Test: xn = mol fraction of the nth substance listed
Details: 101 kPa, Liquid, Vibrating tube method

CCN(CC)CCO.Cl [2-(diethylamino)ethanol hydrochloride] + OCC(O)CO
mass density [kg/m3]
Details | x1 = 0.2 | x1 = 0.25 | x1 = 0.33
298.15 K | 1220.1 | 1205.1 | –
303.15 K | 1217.3 | 1202 | 1170
308.15 K | 1214.1 | 1199 | –
313.15 K | 1211.4 | 1196.1 | 1163.8
318.15 K | 1208.1 | 1192.9 | –
323.15 K | 1204.8 | 1188.4 | 1158.5
328.15 K | 1202.1 | 1186.8 | –
333.15 K | 1198.9 | 1184 | 1153.1
338.15 K | 1196.1 | 1180.7 | –
343.15 K | 1193.6 | 1177.7 | 1145.8
348.15 K | 1190.1 | 1174.6 | –
353.15 K | 1187.3 | 1171.9 | 1140.3
358.15 K | 1184.1 | 1168.5 | –
363.15 K | 1180.7 | 1166.1 | 1134.4
368.15 K | 1178.1 | 1162.4 | –

CCN(CC)CCO.Cl [2-(diethylamino)ethanol hydrochloride] + OCCO
mass density [kg/m3]
Details | x1 = 0.2 | x1 = 0.25 | x1 = 0.33
298.15 K | 1103.7 | – | 1099.5
303.15 K | 1100.4 | 1098.6 | 1096.5
308.15 K | 1097.3 | – | 1093.3
313.15 K | 1094.2 | 1092.6 | 1090.3
318.15 K | 1091 | – | 1087.1
323.15 K | 1087.7 | 1086.2 | 1084
328.15 K | 1084.6 | – | 1080.9
333.15 K | 1081.5 | 1079.7 | 1077.8
338.15 K | 1078.2 | – | 1074.8
343.15 K | 1075 | 1074 | 1071.7
348.15 K | 1071.8 | – | 1068.6
353.15 K | 1068.3 | 1067.5 | 1065.5
358.15 K | 1065.4 | – | 1062.4
363.15 K | 1062.2 | 1060 | 1059
368.15 K | 1059 | – | 1056.2

C[N+](C)(C)CCO.[Cl-] [choline chloride] + OCC(O)CO
mass density [kg/m3]
Details | x1 = 0.25 | x1 = 0.33 | x1 = 0.5
298.15 K | 1203 | 1192 | –
303.15 K | 1200.2 | 1189.5 | 1153.5
308.15 K | 1197.6 | 1186.7 | –
313.15 K | 1195.1 | 1183.8 | 1148.3
318.15 K | 1192.2 | 1181.4 | –
323.15 K | 1189.1 | 1177.6 | 1143
328.15 K | 1186.8 | 1176.1 | –
333.15 K | 1184.4 | 1174.1 | 1137.9
338.15 K | 1181.4 | 1170.8 | –
343.15 K | 1178.1 | 1167.4 | 1132.6
348.15 K | 1176 | 1165.5 | –
353.15 K | 1173.2 | 1163.5 | 1126.6
358.15 K | 1170.6 | 1160.2 | –
363.15 K | 1167.8 | 1157.1 | 1122
368.15 K | 1165.2 | 1154.9 | –
